# Test results taken from US20220023196A1, “COSMETIC COMPOSITION FOR SKIN IMPROVEMENT COMPRISING GREEN BARLEY EXTRACT” (AMI COSMETIC CO., LTD., priority 2020, published 2022).
# Assays:
# sensitive skin = assay: Human patch test for skin irritation on sensitive skin; type: in vivo
# Procedure: A test was conducted to evaluate the suitability and safety of use of soothing gel, lotion, cream, body wash, and foam cleanser formulations including a composition including the ceramide and green barley extract of the present invention. The inventors requested the OATC Skin Clinical Trials Center to perform a human application test, and the test was conducted in accordance with the cosmetics guidelines of Korea's Ministry of Food and Drug Safety, Declaration of Helsinki, and OATC Skin Clinical Trials Center's SOP.
# In order to classify the test subjects according to skin type, the test subjects were screened by a stinging test to identify those with sensitive skin, wherein steam was applied to their faces for 10 minutes using a steamer to make their skin sensitive, and subsequently, each of 10% lactic acid and distilled water (D.W.) was applied to the nasolabial folds on either side of the nose.
# After the test subject's test site was wiped off with 70% ethanol and dried, 25 μl of a test product was applied dropwise to IQ Ultra, which was then attached and fixed to the test site. At 30 minutes, 24 hours, and 48 hours after removing the patch, the level of irritation was evaluated by two experts using, as a standard, the evaluation method devised by Frosch & Kligman and employing the reading standards of the International Contact Dermatitis Research Group (ICDRG).
# In addition, safety zones were established, and an experiment was conducted while using the safety zones as criteria for evaluating the likelihood of causing irritation.
# filaggrin (FLG) = assay: FLG production in HaCaT cells (Filaggrin-ELISA kit); type: cell-based; conditions: for Increase in FLG production (%): 24 hours, Concentration 50 (unit not given), Control = 100
# Procedure: (§1) HaCaT cells were dispensed into a 24-well plate at 1.0×10^5 cells/mL and cultured under the conditions of 37° C. and 5% CO2 for 18 hours. After the medium was replaced with serum-free DMEM, the cells were treated with a sample and then cultured for 24 hours. Subsequently, the culture solution was removed, and each group was washed with PBS and then treated with PBS containing no drugs that could interfere with the quantification of proteins. The cells were lysed through repeated switching between low-temperature incubation and room-temperature incubation, and the proteins were collected. The quantification was performed, using a Filaggrin-ELISA kit (Elabscience Biotechnology Co., Ltd.), according to the method specified by the manufacturer.
# In order to evaluate the skin barrier strengthening effect of Examples 1 to 6 and Comparative Examples 1 to 5, an experiment was conducted to evaluate the effect of increasing the production of FLG.
# The production amount of FLG was measured in the same manner as in Experimental Example 3-1.
# hyaluronic acid (HA) = assay: HA production in HaCaT cells (hyaluronic acid ELISA kit); type: cell-based; conditions: 24 hours; for Increase in HA production (%): Concentration 50 (unit not given), Control = 100
# Procedure: HaCaT cells were dispensed into a 24-well plate at 1.0×10^5 cells/mL and cultured under the conditions of 37° C. and 5% CO2 for 18 hours. After the medium was replaced with serum-free DMEM, the cells were treated with a sample and then cultured for 24 hours. Subsequently, the culture medium was collected and centrifuged at 15,000 rpm for five minutes, and the supernatant was collected and stored frozen (−20° C.) until quantified. Enzyme-linked immunosorbent assay (ELISA) was conducted, using a hyaluronic acid ELISA kit (Elabscience Biotechnology Co., Ltd.), according to the method specified by the manufacturer.
# In order to evaluate the moisturizing effect of Examples 1 to 6 and Comparative Examples 1 to 5, an experiment was conducted to evaluate an HA production increasing effect.
# The HA production amount was measured in the same manner as in Experimental Example 3-2.
# aquaporin 3 (AQP3) = assay: AQP3 production in HaCaT cells (AQP3-ELISA kit); type: cell-based; conditions: 24 hours; for Increase in AQP3 production (%): Concentration 50 (unit not given), Control = 100
# Procedure: as §1, with “In addition, HaCaT cells” for “HaCaT cells”, “cells/mL and then cultured under” for “cells/mL and cultured under”, “performed, using an AQP3-ELISA kit (Elabscience” for “performed, using a Filaggrin-ELISA kit (Elabscience”
# In order to evaluate the moisturizing effect of Examples 1 to 6 and Comparative Examples 1 to 5, an experiment was conducted to evaluate an AQP3 production increasing effect.
# The AQP3 production amount was measured in the same manner as in Experimental Example 3-2.
Molecule,Increase in FLG production (%) (filaggrin (FLG)),Increase in HA production (%) (hyaluronic acid (HA)),Increase in AQP3 production (%) (aquaporin 3 (AQP3)),further results
CCCCCCCCCCCCOS(=O)(=O)[O-].[Na+] [1% SLS],–,–,–,"Sum of skin irritation reaction intensity 1st (sensitive skin; 1st reading, patch test): 4.00; Sum of skin irritation reaction intensity 2nd (sensitive skin; 2nd reading, patch test): 4.00; Sum of skin irritation reaction intensity 3rd (sensitive skin; 3rd reading, patch test): 3.06; Irritation of level ++ or more in >10% of test subjects (sensitive skin; conformity criterion): Conforming; Safety zone (sensitive skin; conformity to safety zone of Table 20): Conforming; Skin irritation index (sensitive skin; patch test): 3.06"
"CCCCCCCCCCCCC/C=C/C(O)C(CO)NC(=O)CCCCCCCCCCCCCCCCCCCCCC (stereo not drawn) [Comparative Example 2, Ceramide NS]",116.7,94.5,118.5,–
"CCCCCCCCCCCCCCCCCCCCCCC(=O)NC(CO)C(O)C(O)CCCCCCCCCCCCCC (stereo not drawn) [Comparative Example 3, Ceramide NP]",115.5,93.2,114.6,–
"CCCCCCCCCCCCC/C=C/C(O)C(CO)NC(=O)C(O)CCCCCCCCCCCCCCCCCCCCC (stereo not drawn) [Comparative Example 4, Ceramide AS]",122.4,94.6,114.5,–
"CCCCCCCCCCCCCCCCCCCCCC(O)C(=O)NC(CO)C(O)C(O)CCCCCCCCCCCCCC (stereo not drawn) [Comparative Example 5, Ceramide AP]",129.9,95.2,113.7,–
"O=c1cc(-c2ccc(O)cc2)oc2cc(O[C@@H]3O[C@H](CO)[C@@H](O)[C@H](O)[C@H]3O)c([C@@H]3O[C@H](CO)[C@@H](O)[C@H](O)[C@H]3O)c(O)c12 [saponarin, 5-hydroxy-2-(4-hydroxyphenyl)-6-[3,4,5-trihydroxy-6-(hydroxymethyl)oxan-2-yl]-7-[3,4,5-trihydroxy-6-(hydroxymethyl)oxan-2-yl]oxychromen-4-one]",–,–,–,Increase of the expression level of FLG compared to the control (filaggrin (FLG); 24 hours (FIG. 6)): 29.87%; Production of HA (result in words) (hyaluronic acid (HA)): significantly increased the production of skin moisturizing factors; Production of AQP3 (result in words) (aquaporin 3 (AQP3)): significantly increased the production of skin moisturizing factors
Ceramide EOP [Comparative Example 1],119.5,93.0,117.5,–
